# Values joined by “and” are separate entries in the source; they are usually repeats but may differ in a detail not shown here. Equal entries are not always repeated.
# Columns and labels:
# [1] = ref [32]; cited from earlier work
# [2] = Intestinal absorption of micellar DHA into lymph (HDL, chylomicrons; PC, TAG) in rats with lymph duct cannulation; format: in vivo, Sprague-Dawley rats
# Protocol: Two types of micelle, one containing the DHA as free fatty acid, and the other containing the DHA as LPC, were prepared by sonication. All components except taurocholate were added as chloroform solutions to a glass tube and the solvent was evaporated under nitrogen. Then 10 ml of sodium taurocholate solution (12 mM, in PBS, pH 7.4) was added to the tube and the lipids dispersed by vortexing for 1 min. The mixture was then sonicated in a Sonics Vibro Cell sonicator at 40% setting for four 30 sec pulses at 1 min intervals, while the tube was immersed in ice. The resulting micelle were optically clear, and were used immediately for infusion into rats.
# Thoracic lymph duct cannulation was carried out as described with slight modifications. The rats were fasted overnight before the procedure. Under analgesics and isoflurane anesthesia, the abdomen was opened, the dorsal parietal peritoneum was incised, and the aorta was dissected free from the surrounding muscle and thoracic duct. The duct was cannulated (3-5 mm) with a heparin (500 units/ml) and saline-rinsed, pre-cut catheter (16 gauge, BD Angiocath). Following insertion, the catheter was connected to ‘U” shaped secured Silastic Laboratory tubing to prevent displacement or dislodgement. Micelle (10 ml) were infused at a rate of 3 ml/h into the duodenum (Harvard pump) through a second catheter positioned into the duodenum, followed by the infusion of 10 ml PBS, at 3 ml/h. The abdomen was closed and the lymph was collected for 6 h, in 30 min fractions into tubes containing 1.0 ml of PBS, while the animal was under anesthesia. The body temperature of the animal was maintained at 37° C. with the help of a heating pad.
# The volume of each lymph fraction was made up to 2.0 ml with PBS, containing 1 mM EDTA (final). The density of lymph fraction was raised to 1.063 g/ml by the addition of KBr and centrifuged at 100,000×g for 4 h at 4° C. in the TLA 100.3 rotor of the Beckman TL-100 ultracentrifuge. One ml of the bottom layer was aspirated to a new tube (HDL) and the remaining 1.0 ml was taken as the chylomicrons (CM).
# Extraction and Analysis of Lipids. The total lipids of HDL and CM were extracted by the Bligh and Dyer method after spiking the samples with 25 μg each of 15:0-15:0-15:0 TAG and 17:0-17:0 PC. The lipid extract was applied to an aminopropyl silica cartridge (100 mg) in 1 ml of chloroform under gravity, and the cartridge was washed with chloroform (2×1.0 ml) to elute the TAG and cholesteryl esters. […] The PC was then eluted with 2.0 ml of chloroform: methanol (3:2, v/v)).
# The temperature program was as follows: 165° C. for 1 min, raised to 210° C. at the rate of 6.5° C./min, followed by raising to 240° C. at the rate of 3.5° C./min, and maintaining at 240° C. for 10 min. The total analysis time was 26.5 min. The injection temperature was 250° C., ion source temperature 230° C. and the interface temperature was 250° C. […] The identification of individual FAME was done by comparison of retention times with the standard mixture (PUFA2, Sigma) as well as by the characteristic fragment ions (m/z 74 for saturated, m/z 55 for monounsaturated, m/z 67 for diunsaturated, and m/z 79 for polyunsaturated).
# normal adult mice = test: Morris water maze test; format: in vivo, C57BL/6 mice; conditions: for latency time to the previous platform area / time in the target quadrant: n=5; for finding the previous platform area, faster than the control and free DHA groups / time spent in the target quadrant versus control and free DHA groups: study 1, probe trial
# BDNF [3] = test: BDNF concentration in the brain regions by ELISA; format: in vivo, C57BL/6 mice; conditions: 1 mg DHA/day, 30 days, n=6
# Excerpt: Therefore, we determined BDNF concentration in the brain regions by ELISA to complement our MWM data.
# [4] = Feeding study, daily gavage for 30 days: fatty acid and DHA lipid species of plasma, liver, heart, adipose tissue and brain regions
# [5] = Feeding free EPA or LPC-EPA for 15 days: omega 3 fatty acids and arachidonic acid in tissues; format: in vivo, Mice; conditions: oral; for all three n-3 fatty acids in the liver / decrease in liver arachidonic acid level / decrease of brain content of arachidonic acid: 15 days; for increase of brain DHA content: corn oil gavage
# Protocol: Mice were fed oral preparations of free EPA or LPC-EPA at about 1 mg/kg per day for 15 days. The compounds were dispersed in corn oil (80 μl) and fed daily by gavge.
# [6] = as above; format: in vivo, Mice; conditions: 1 mg EPA/day for 15 days
# [7] = Isomerization / isomer stability of LPC-DHA; format: physicochemical
# Protocol: LPC-DHA was prepared by the hydrolysis of 16:0-22:6 PC by immobilized Mucor lipase (Lipozyme) by a modification of the published procedure. Briefly, 100 mg of Lipozyme was added to 50 mg of 16:0-22:6 PC dissolved in 1 ml of 95:5 (v/v) ethanol: water. The reaction mixture was incubated at 37° C. for 72 h under nitrogen with shaking. The reaction mixture was dried under nitrogen and extracted with 4 ml of ethanol: water: hexane (2:1:1, by vol) mixture to remove the free fatty acid. The lower layer was concentrated under nitrogen and extracted by Bligh and Dyer procedure. The final sample contained 95% LPC, the rest being unhydrolyzed PC, as determined by lipid phosphorus estimation after TLC separation. Although this enzyme produces sn-2 22:6 LPC, this isomer is unstable, and is non-enzymatically isomerized to sn-1-22:6 LPC [24,25].
# sn-2 DHA LPC was prepared by the hydrolysis of 16:0-22:6 PC with immobilized Mucor lipase (Lipozyme) by a modification of the published procedure^44. […] The preparation contained >95% of lipid phosphorus in LPC DHA and the rest in unhydrolyzed PC, as determined by TLC, and was used for feeding studies without further purification. […] More than 95% of the 2-acyl LPC DHA was converted to 1-acyl isomer under these conditions, as determined by LC/MS.
# [8] = cited from earlier work
# BDNF [9] = test: BDNF levels in the brain after feeding free EPA or LPC-EPA; format: in vivo, Mice; conditions: 1 mg EPA/day for 15 days
# Protocol: The compounds were dispersed in corn oil (80 μl) and fed daily by gavge. Results are shown in e.g. […]. […] See e.g. FIGS. 23A-23C.
# [10] = about 1 mg/kg per day for 15 days
compound,measurement,setting,value
CCCCCCCCCCCCCCCC(=O)OCC(O)COP(=O)([O-])OCC[N+](C)(C)C (stereo not drawn) [16:0 LPC],recovery of 16:0 in lymph PC after infusion of 16:0 LPC,[1],25-30%
"CC/C=C\C/C=C\C/C=C\C/C=C\C/C=C\C/C=C\CCC(=O)O [free DHA, (4Z,7Z,10Z,13Z,16Z,19Z)-docosa-4,7,10,13,16,19-hexaenoic acid, reference compound]",percentage of 22:6/22:6/18:1 TAG species,"[2]; HDL and CM, free DHA compared to LPC-DHA",significantly higher
same,TAG species containing DHA at all 3 positions,[2]; free DHA compared to LPC-DHA absorption,significantly higher
same,significant amount of free DHA in the lymph after infusion,[2],not observed
same,latency time to the previous platform area,"normal adult mice; second study, probe trial",47.1 s
same,time in the target quadrant,"normal adult mice; second study, probe trial",12 s
same,BDNF content in regions of the brain,BDNF [3],no change
same,DHA concentration and 22:6/20:4 ratio in adipose tissue,"[4]; 1 mg DHA/day, 30 days",increase
same,20:4-22:6 PC in the hippocampus,[4]; LC/MS/MS,increased
same,DHA-PC species in plasma,[4]; LC/MS/MS,not
same,major species of DHA-PE in the hippocampus,[4]; LC/MS/MS,not
same,plasma TAG species containing DHA,[4]; LC/MS/MS,increased more
same,LPC DHA concentration of plasma,"[4]; LC/MS/MS, 1 mg DHA/day, 30 days",not
same,22:6/20:4 ratio in brain regions,[4]; all regions of brain,no significant increase
same,increase of brain DHA levels in normal adult mice,"[4]; equal amount of DHA, 30 days",did not appreciably increase
"CC/C=C\C/C=C\C/C=C\C/C=C\C/C=C\CCCC(=O)O [free EPA, eicosapentaenoic acid]",all three n-3 fatty acids in the liver,[5],increased
same,decrease in liver arachidonic acid level,[5],~60%
same,decrease of brain content of arachidonic acid,[5],~12%
same,increase of brain EPA (in words),[5]; [10],to a small extent
same,increase of total amount of brain Omega 3 fatty acids (EPA+DPA+DHA),[5]; [10],no change
same,increase of brain DHA content,[5]; [10],no effect
same,enriching the total omega 3 fatty acids in the heart,[6],equally efficient
same,omega 3 fatty acid content of adipose tissue,[6],enriched more
same,omega 3 fatty acids in erythrocytes,[6],increased
CC/C=C\C/C=C\C/C=C\C/C=C\C/C=C\C/C=C\CCC(=O)OC[C@@H](O)COP(=O)([O-])OCC[N+](C)(C)C [sn-1 DHA LPC],"acquisition phase, learning the location of the platform by Day 5",normal adult mice; second study,faster
same,latency time to the previous platform area,"normal adult mice; second study, probe trial",12.7 s
same,time in the target quadrant,"normal adult mice; second study, probe trial",29.9 s
same,"finding the previous platform area, faster than the control and free DHA groups",normal adult mice,7 times
same,time spent in the target quadrant versus control and free DHA groups,normal adult mice,twice as long
same,BDNF content in regions of the brain,BDNF [3],significantly increased
same,"18:1-22:6 PC in plasma, between the two LPC isomers","[4]; mouse, in vivo",greater increase
same,22:6/20:4 ratio in liver,"[4]; mouse, in vivo",significantly increased
same,DHA concentration in liver,"[4]; mouse, in vivo",did not reach statistical significance
same,enrichment of all the brain regions with DHA,"[4]; mouse, in vivo",significantly enriched
same,"increase in plasma LPC DHA, sn-1 DHA LPC compared to sn-2 DHA LPC","[4]; mouse, in vivo",28%
same,increase of DHA content (nmol/mg) in striatum and amygdala,"[4]; mouse, in vivo",did not reach statistical significance
CC/C=C\C/C=C\C/C=C\C/C=C\C/C=C\C/C=C\CCC(=O)O[C@H](CO)COP(=O)([O-])OCC[N+](C)(C)C [sn-2 DHA LPC],"isomerization to the sn-1 isomer, compared with sn-2 16:0 LPC","[7]; physiological pH and temperature, unpublished results",much slower
same,LPC remaining as sn-2 isomer,"[7]; stored in chloroform: methanol (9:1) at −20° C., at least 4 weeks",Over 90%
same,"finding the previous platform area, faster than the control and free DHA groups",normal adult mice,7 times
same,time spent in the target quadrant versus control and free DHA groups,normal adult mice,twice as long
same,BDNF content in regions of the brain,BDNF [3],significantly increased
same,22:6/20:4 ratio in liver,"[4]; 1 mg DHA/day, 30 days",increase
same,DHA concentration in liver,"[4]; 1 mg DHA/day, 30 days",significantly increased
same,concentration of 20:4 in liver,"[4]; 1 mg DHA/day, 30 days",parallel decrease
same,enrichment of all the brain regions with DHA,"[4]; cortex, cerebellum, hippocampus, striatum, amygdala, % of total fatty acids",significantly enriched
docosahexaenoic acid-lysophosphatidylcholine [LPC-DHA],percentage of 16:0/22:6 PC,"[2]; HDL and CM, LPC-DHA compared to free DHA absorption",significantly lower
same,significant amount of free DHA in the lymph after infusion,[2],not observed
same,"increase in amount of DHA recovered in lymph HDL, compared to free DHA absorption",[2]; lymph HDL,> 2 fold
same,hydrolysis in the intestinal lumen (intestinal contents after the 6 h lymph collection),[2]; some experiments,no hydrolysis of LPC in the lumen
same,"percent of whole lymph DHA appearing in PC, LPC compared to free fatty acid",[2]; whole lymph,5 times
same,percent of whole lymph DHA appearing in PC,"[2]; whole lymph, mean±SEM",18.72±2.88% and 18%
same,"decrease in the latency to previous platform area, compared to the control or free DHA treated animals",normal adult mice; probe trial,7 fold
same,"increase in the time spent in the target quadrant, compared to the control or free DHA treated animals",normal adult mice; probe trial,2 fold
same,brain uptake of injected compound compared with free DHA,[8]; kinetic studies [7],higher
same,efficiency of passing through the BBB compared with free fatty acid,"[8]; previous studies in animals [5,6]",about 10 times
same,increase of DHA content in most regions of the brain (nmol of DHA per mg wet weight),"[4]; 1 mg DHA/day, 30 days",2-3 fold
same,percentage of DHA in plasma,"[4]; % of total fatty acids, 1 mg DHA/day, 30 days",greater
eicosapenteanoic acid-lysophosphatidylcholine [LPC-EPA],all three n-3 fatty acids in the liver,[5],increased
same,decrease in liver arachidonic acid level,[5],~60%
same,decrease of brain content of arachidonic acid,[5],~40%
same,increase of total amount of brain Omega 3 fatty acids (EPA+DPA+DHA),[5]; [10],about 90%
same,increase of brain DHA content,[5]; [10],60%
same,BDNF levels in the brain,BDNF [9],increased
same,"arachidonic acid in the brain, LPC-EPA versus free EPA",[6],decreased it more
same,concentration of arachidonic acid in all tissues,[6],decreased
same,enriching the total omega 3 fatty acids in the heart,[6],equally efficient

# Source: patent publication US10555957B2, “Methods and compositions for enriching DHA levels in the brain” (The Board of Trustees of the University of Illinois, a body …, priority 2017, dated 2020)
